pIC50: −log10 of the molar value.
Columns and labels:
human CYP4F2 = target: T1, human CYP4F2 (Homo sapiens, UniProt P78329); assay: CYP4F2 inhibition test (Test Example 1); assay type: biochemical; conditions: Escherichia coli membrane fraction expressing human CYP4F2, 2.5 μM luciferine derivative, room temperature 60 minutes, luminescence
T1 construct: host or cells: Escherichia coli (membrane fraction)
T1 sequence (P78329 5-520): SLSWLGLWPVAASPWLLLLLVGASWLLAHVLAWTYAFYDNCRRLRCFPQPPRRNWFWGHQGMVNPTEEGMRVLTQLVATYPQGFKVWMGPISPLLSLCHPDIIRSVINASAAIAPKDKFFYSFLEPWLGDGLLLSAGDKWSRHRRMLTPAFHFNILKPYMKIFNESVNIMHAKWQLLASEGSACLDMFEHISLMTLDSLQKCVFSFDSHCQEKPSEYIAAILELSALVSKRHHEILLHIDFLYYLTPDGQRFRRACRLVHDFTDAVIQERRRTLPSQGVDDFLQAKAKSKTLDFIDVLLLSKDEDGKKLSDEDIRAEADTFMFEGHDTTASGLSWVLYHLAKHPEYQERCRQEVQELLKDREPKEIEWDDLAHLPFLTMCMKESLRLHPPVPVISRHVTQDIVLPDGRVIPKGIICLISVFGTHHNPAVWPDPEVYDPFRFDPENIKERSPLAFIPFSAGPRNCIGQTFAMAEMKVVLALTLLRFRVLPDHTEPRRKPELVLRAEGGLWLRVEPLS
Procedure: (§1) (1) Inhibition Test for Each Compound of the Present Invention Against 20-HETE Producing Enzymes (CYP4F2 and CYP4A11)
(§2) In the CYP4F2 inhibition test, the reaction solution containing each compound [final concentration of 50 mM, KPO4 (pH 7.4), 2.5 μM, luciferine derivative and 1 mM NADPH] was added to an Escherichia coli membrane fraction (100 μg/mL, protein) in which human CYP4F2 had been expressed. In the CYP4A11 inhibition test, the reaction solution containing each compound [final concentration of 100 mM, Tris-HCl (pH 7.5), 60 μM, luciferine derivative, 1.3 mM NADP^+, 3.3 mM Glucose 6-Phosphate, 3.3 mM MgCl2 and 0.4 U/mL Glucose 6-Phosphate dehydrogenase] was added to an Escherichia coli membrane fraction (100 μg/mL, protein) in which human CYP4A11 had been expressed. Following this, the membrane fraction was left to stand at room temperature for 60 minutes to perform an enzymatic reaction. After the reaction, a luciferine detection reagent was added, and the luminescence value was measured using a plate reader.
(§3) A: Luminescence value with addition of compound
(§4) B: Luminescence value without addition of compound and enzyme
(§5) C: Luminescence value without addition of compound

human CYP4A11 = target: T2, human CYP4A11 (Homo sapiens, UniProt Q02928); assay: CYP4A11 inhibition test (Test Example 1); assay type: biochemical; conditions: Escherichia coli membrane fraction expressing human CYP4A11, 60 μM luciferine derivative, room temperature 60 minutes, luminescence
T2 construct: host or cells: Escherichia coli (membrane fraction)
T2 sequence (Q02928 5-519): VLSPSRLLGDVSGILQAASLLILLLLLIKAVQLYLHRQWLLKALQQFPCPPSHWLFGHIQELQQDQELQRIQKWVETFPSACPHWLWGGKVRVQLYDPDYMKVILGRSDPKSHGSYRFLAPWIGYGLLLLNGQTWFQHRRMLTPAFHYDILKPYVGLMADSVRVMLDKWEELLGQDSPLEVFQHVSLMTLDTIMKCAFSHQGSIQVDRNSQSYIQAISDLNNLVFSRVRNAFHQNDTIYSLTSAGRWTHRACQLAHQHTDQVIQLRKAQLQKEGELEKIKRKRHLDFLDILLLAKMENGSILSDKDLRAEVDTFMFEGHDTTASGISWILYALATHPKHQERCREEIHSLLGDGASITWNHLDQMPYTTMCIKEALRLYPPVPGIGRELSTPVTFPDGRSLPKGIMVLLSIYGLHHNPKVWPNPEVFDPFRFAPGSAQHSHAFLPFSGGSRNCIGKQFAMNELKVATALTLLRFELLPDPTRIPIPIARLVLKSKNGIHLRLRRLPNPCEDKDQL
Procedure: as §1, §2, §3, §4, §5

## O=C(CS(=O)(=O)c1cccc(COc2ccc(-c3ccn[nH]3)nc2)c1)N1CCC1 [Example 18-4]
Human CYP4F2
  pIC50: 7.07
Human CYP4A11
  pIC50: 7.12

## CC(=O)N1CCC(COc2ccc(-c3[nH]ncc3F)nc2)CC1 [Example 23-1, 1-[4-({[6-(4-Fluoro-1H-pyrazol-5-yl)pyridin-3-yl]oxy}methyl)piperidin-1-yl]ethan-1-one]
Human CYP4F2
  pIC50: 7.89
Human CYP4A11
  pIC50: 7.15

## CN(C)S(=O)(=O)N1CC(COc2ccc(-c3ccn[nH]3)nc2)C1 [Example 1-25]
Human CYP4F2
  pIC50: 6.19
Human CYP4A11
  pIC50: 5.80

## CC(=O)N1CCCC[C@@H]1CCOc1ccc(-c2ccn[nH]2)nc1 [Example 13-5]
Human CYP4F2
  pIC50: 5.30
Human CYP4A11
  pIC50: 5.48

## N#Cc1ccc(COc2ccc(-c3ccn[nH]3)nc2)cc1 [54-20]
Human CYP4F2
  pIC50: 8.19
Human CYP4A11
  pIC50: 5.80

## CC(=O)N1CCC(C)(COc2ccc(-c3ccn[nH]3)nc2)CC1 [Example 13-2]
Human CYP4F2
  pIC50: 8.00
Human CYP4A11
  pIC50: 6.19

## c1cc(-c2ccc(OCC3CCOCC3)cn2)[nH]n1 [Example 13-15]
Human CYP4F2
  pIC50: 6.57
Human CYP4A11
  pIC50: 6.85

## CC(=O)N1CCC[C@@H](CCOc2ccc(-c3ccn[nH]3)nc2)C1 [Example 13-4]
Human CYP4F2
  pIC50: 6.60
Human CYP4A11
  pIC50: 5.89

## CC(=O)Nc1cc(COc2ccc(-c3ccn[nH]3)nc2)ccn1 [Example 14-6]
Human CYP4F2
  pIC50: 6.68
Human CYP4A11
  pIC50: 5.21

## CC(=O)NCC12CC(COc3ccc(-c4ccn[nH]4)nc3)(C1)C2 [Example 21-1, N-{[3-({[6-(1H-Pyrazol-5-yl)pyridin-3-yl]oxy}methyl)bicyclo[1.1.1]pentan-1-yl]methyl}acetamide]
Human CYP4F2
  pIC50: 6.82
Human CYP4A11
  pIC50: 5.92

## Cc1ccc(COc2ccc(-c3ccn[nH]3)nc2)cc1S(C)(=O)=O [Example 14-12]
Human CYP4F2
  pIC50: 7.51
Human CYP4A11
  pIC50: 6.57

## O=C(CC1CCS(=O)(=O)C1)N1CCC[C@@H](COc2ccc(-c3ccn[nH]3)nc2)C1 (some centres unmarked) [Example 3-13]
Human CYP4F2
  pIC50: 6.55
Human CYP4A11
  pIC50: 5.82

## CC(=O)N[C@H]1C[C@@H](COc2ccc(-c3ccn[nH]3)nc2)C1 [Example 16-1-1, N-[cis-3-({[6-(1H-Pyrazol-5-yl)pyridin-3-yl]oxy}methyl)cyclobutyl]acetamide]
Human CYP4F2
  pIC50: 7.77
Human CYP4A11
  pIC50: 5.27

## CC(C)S(=O)(=O)N1CC[C@H](COc2ccc(-c3ccn[nH]3)nc2)C1 [Example 10-15]
Human CYP4F2
  pIC50: 7.00
Human CYP4A11
  pIC50: 6.68

## CC1CCCC(C)N1C(=O)c1cccc(COc2ccc(-c3ccn[nH]3)nc2)c1 (centres unmarked) [Example 25-24]
Human CYP4F2
  pIC50: 6.46
Human CYP4A11
  pIC50: 5.60

## CS(=O)(=O)c1cccc(COc2ccc(-c3[nH]ncc3C(=O)NC3CC3)nc2)c1 [Example 47-1, N-Cyclopropyl-5-{5-[(3-methylsulfonylphenyl)methoxy]pyridin-2-yl}-1H-pyrazole-4-carboxamide]
Human CYP4F2
  pIC50: 4.82
Human CYP4A11
  pIC50: < 4.30

## CC(=O)N1CC[C@H](COc2ccc(-c3ccn[nH]3)nc2)C1 [Example 20-2]
Human CYP4F2
  pIC50: 6.62
Human CYP4A11
  pIC50: 5.80

## CC(C)S(=O)(=O)N1CCC[C@H](COc2ccc(-c3ccn[nH]3)nc2)C1 [Example 10-9]
Human CYP4F2
  pIC50: 7.38
Human CYP4A11
  pIC50: 7.33

## CN(C)S(=O)(=O)N1CC[C@@H](COc2cnc(-c3ccn[nH]3)c(F)c2)C1 [Example 10-18]
Human CYP4F2
  pIC50: 6.96
Human CYP4A11
  pIC50: 7.32

## CC(=O)N1CCC(COc2ccc(-n3ccnn3)nc2)CC1 [Example 45-1, 1-(4-{[6-(Triazol-1-yl)pyridin-3-yl]oxymethyl}piperidin-1-yl)ethanone]
Human CYP4F2
  pIC50: 6.43
Human CYP4A11
  pIC50: 5.89

## CC(C)c1cccc(COc2ccc(-c3ccn[nH]3)nc2)c1 [53-3]
Human CYP4F2
  pIC50: 6.85
Human CYP4A11
  pIC50: 7.28

## O=C(CC1CC1)N1CCC(COc2ccc(-c3ccn[nH]3)nc2)CC1 [Example 2-2]
Human CYP4F2
  pIC50: 7.11
Human CYP4A11
  pIC50: 6.03

## NC(=O)COc1ccccc1C(=O)N1CCC[C@@H](COc2ccc(-c3ccn[nH]3)nc2)C1 [Example 3-26]
Human CYP4F2
  pIC50: 5.04
Human CYP4A11
  pIC50: 5.92

## O=c1ccc2cc(COc3ccc(-c4ccn[nH]4)nc3)ccc2o1 [Example 25-11]
Human CYP4F2
  pIC50: 8.52
Human CYP4A11
  pIC50: 5.80

## CC(C)(O)CC(=O)NCCC(=O)N1CCC[C@@H](COc2ccc(-c3ccn[nH]3)nc2)C1 [Example 4-7]
Human CYP4F2
  pIC50: 6.64
Human CYP4A11
  pIC50: 6.42

## CN(C)S(=O)(=O)N1CC[C@H](COc2ccc(-c3ccn[nH]3)nc2)C1 [Example 10-14]
Human CYP4F2
  pIC50: 6.49
Human CYP4A11
  pIC50: 6.80

## CC(C)C(=O)N1CCC(COc2ccc(-c3ccn[nH]3)nc2)CC1 [Example 1-2]
Human CYP4F2
  pIC50: 6.74
Human CYP4A11
  pIC50: 6.28

## O=C(CC1CCCCC1)N1CCC[C@@H](COc2ccc(-c3ccn[nH]3)nc2)C1 [Example 3-32]
Human CYP4F2
  pIC50: 7.82
Human CYP4A11
  pIC50: 6.34

## CC(C)CC(=O)N1CC(S(=O)(=O)N2CCC[C@@H](COc3ccc(-c4ccn[nH]4)nc3)C2)C1 [Example 1-20]
Human CYP4F2
  pIC50: 8.07
Human CYP4A11
  pIC50: 7.11

## c1cc(-c2ccc(OCc3cncc(-n4nccn4)c3)cn2)[nH]n1 [Example 25-8]
Human CYP4F2
  pIC50: 6.64
Human CYP4A11
  pIC50: 5.60

## CC(=O)N(C)CCC(=O)N1CCC[C@@H](COc2ccc(-c3ccn[nH]3)nc2)C1 [Example 3-42]
Human CYP4F2
  pIC50: 6.05
Human CYP4A11
  pIC50: 5.74

## CC(=O)N1CCC(COc2ccc(-c3cn[nH]c3)nc2)CC1 [Example 39-1, 1-(4-{[6-(1H-Pyrazol-4-yl)pyridin-3-yl]oxymethyl}piperidin-1-yl)ethanone]
Human CYP4F2
  pIC50: 6.62
Human CYP4A11
  pIC50: 6.66

## CCCCNC(=O)NCC(=O)N1CCC[C@@H](COc2ccc(-c3ccn[nH]3)nc2)C1 [Example 3-41]
Human CYP4F2
  pIC50: 6.74
Human CYP4A11
  pIC50: 6.64

## O=C(N1CCC[C@@H](COc2ccc(-c3ccn[nH]3)nc2)C1)C(F)(F)C1(O)CCCC1 [Example 3-11]
Human CYP4F2
  pIC50: 7.28
Human CYP4A11
  pIC50: 6.72

## CN(CC(=O)N1CCC[C@@H](COc2ccc(-c3ccn[nH]3)nc2)C1)C(=O)OC(C)(C)C [Example 3-40]
Human CYP4F2
  pIC50: 6.43
Human CYP4A11
  pIC50: 6.03

## CS(=O)(=O)c1cncc(COc2ccc(-c3n[nH]cc3Cl)nc2)c1 [Example 13-18]
Human CYP4F2
  pIC50: 7.03
Human CYP4A11
  pIC50: 6.72

## Fc1ccc(COc2ccc(-c3ccn[nH]3)nc2)cc1F [54-4]
Human CYP4F2
  pIC50: 7.62
Human CYP4A11
  pIC50: 6.46

## CS(=O)(=O)c1cccc(COc2ccc(-c3cn[nH]c3)nc2)c1 [Example 41-1, 5-[(3-Methylsulfonylphenyl)methoxy]-2-(1H-pyrazol-4-yl)pyridine]
Human CYP4F2
  pIC50: 6.33
Human CYP4A11
  pIC50: 6.92

## C1=C(c2cccc(COc3ccc(-c4ccn[nH]4)nc3)c2)CCC1 [Reference Example 53-1, 5-{[3-(Cyclopent-1-en-1-yl)phenyl]methoxyl}-2-(1H-pyrazol-5-yl)pyridine]
Human CYP4F2
  pIC50: 7.60
Human CYP4A11
  pIC50: 6.68

## CC1(C)Cc2cc(COc3ccc(-c4ccn[nH]4)nc3)cc(Cl)c2O1 [Example 25-13]
Human CYP4F2
  pIC50: 6.72
Human CYP4A11
  pIC50: 7.44

## O=C(CCC(=O)N1CCC[C@@H](COc2ccc(-c3ccn[nH]3)nc2)C1)N1CCOCC1 [Example 3-20]
Human CYP4F2
  pIC50: 6.19
Human CYP4A11
  pIC50: 5.48

## CC(C)NC(=O)N1CCC[C@H](COc2ccc(-c3ccn[nH]3)nc2)C1 [Example 5-3]
Human CYP4F2
  pIC50: 6.72
Human CYP4A11
  pIC50: 5.92

## O=C(CS(=O)(=O)c1cccc(COc2ccc(-c3ccn[nH]3)nc2)c1)N1CCCC1 [Example 18-5]
Human CYP4F2
  pIC50: 7.33
Human CYP4A11
  pIC50: 6.85

## CC(=O)N1CC(CCCOc2ccc(-c3ccn[nH]3)nc2)C1 [Example 16-3]
Human CYP4F2
  pIC50: 7.82
Human CYP4A11
  pIC50: 5.34

## O=S(=O)(CC1CC1)c1cc(COc2ccc(-c3ccn[nH]3)nc2)ccn1 [Example 14-11]
Human CYP4F2
  pIC50: 7.77
Human CYP4A11
  pIC50: 7.52

## CC(=O)N1CC2(CC(COc3ccc(-c4ccn[nH]4)nc3)C2)C1 [Example 14-4]
Human CYP4F2
  pIC50: 6.44
Human CYP4A11
  pIC50: 5.38

From patent US20210040062A1, “AZOLE-SUBSTITUTED PYRIDINE COMPOUND” (TAISHO PHARMACEUTICAL CO., LTD., priority 2016, published 2021)
